Paper PMC3513945 (Nature chemical biology, 2012)

Tests used:
[1] = biological target: T1, DAGLβ (Mus musculus, UniProt Q91WC9); assay: inhibition of DAGLβ in transfected HEK293T lysate; assay type: biochemical
T1 sequence (Q91WC9 1-669): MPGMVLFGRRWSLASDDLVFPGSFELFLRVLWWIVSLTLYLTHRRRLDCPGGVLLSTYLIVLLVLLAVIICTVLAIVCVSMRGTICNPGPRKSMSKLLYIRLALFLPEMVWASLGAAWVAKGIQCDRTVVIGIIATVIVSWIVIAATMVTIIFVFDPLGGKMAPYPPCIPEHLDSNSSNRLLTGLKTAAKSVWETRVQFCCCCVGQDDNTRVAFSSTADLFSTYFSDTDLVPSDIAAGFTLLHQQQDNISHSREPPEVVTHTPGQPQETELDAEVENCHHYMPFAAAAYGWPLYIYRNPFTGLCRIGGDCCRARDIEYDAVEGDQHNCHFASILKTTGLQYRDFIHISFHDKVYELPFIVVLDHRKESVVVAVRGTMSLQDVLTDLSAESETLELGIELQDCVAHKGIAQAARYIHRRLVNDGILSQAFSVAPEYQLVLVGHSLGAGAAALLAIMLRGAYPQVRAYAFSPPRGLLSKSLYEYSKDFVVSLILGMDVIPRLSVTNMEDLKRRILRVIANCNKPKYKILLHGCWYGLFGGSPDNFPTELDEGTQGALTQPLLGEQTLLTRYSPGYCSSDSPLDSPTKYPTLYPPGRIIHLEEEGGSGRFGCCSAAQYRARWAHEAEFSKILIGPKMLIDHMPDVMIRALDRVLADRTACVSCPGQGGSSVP

[2] = biological target: T2, ABHD6 (Mus musculus, UniProt Q8R2Y0); assay: competitive ABPP in mouse brain proteome; assay type: biochemical
T2 sequence (Q8R2Y0 1-336): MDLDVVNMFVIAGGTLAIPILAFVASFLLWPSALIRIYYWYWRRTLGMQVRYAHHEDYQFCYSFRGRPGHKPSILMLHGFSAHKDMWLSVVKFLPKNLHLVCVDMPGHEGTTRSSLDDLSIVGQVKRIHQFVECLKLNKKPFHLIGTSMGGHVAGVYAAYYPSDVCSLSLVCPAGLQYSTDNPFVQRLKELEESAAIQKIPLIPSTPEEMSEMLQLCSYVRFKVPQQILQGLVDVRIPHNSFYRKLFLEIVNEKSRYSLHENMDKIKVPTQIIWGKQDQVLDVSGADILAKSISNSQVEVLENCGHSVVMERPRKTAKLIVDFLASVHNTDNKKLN

[3] = biological target: T1, DAGLβ; assay: competitive ABPP on DAGLβ-transfected HEK293T proteome; assay type: biochemical
[4] = biological target: T3, human DAGLβ (Homo sapiens, UniProt Q8NCG7); assay: in vitro inhibition of human DAGLβ activity; assay type: cell-based
T3 sequence (Q8NCG7 1-672): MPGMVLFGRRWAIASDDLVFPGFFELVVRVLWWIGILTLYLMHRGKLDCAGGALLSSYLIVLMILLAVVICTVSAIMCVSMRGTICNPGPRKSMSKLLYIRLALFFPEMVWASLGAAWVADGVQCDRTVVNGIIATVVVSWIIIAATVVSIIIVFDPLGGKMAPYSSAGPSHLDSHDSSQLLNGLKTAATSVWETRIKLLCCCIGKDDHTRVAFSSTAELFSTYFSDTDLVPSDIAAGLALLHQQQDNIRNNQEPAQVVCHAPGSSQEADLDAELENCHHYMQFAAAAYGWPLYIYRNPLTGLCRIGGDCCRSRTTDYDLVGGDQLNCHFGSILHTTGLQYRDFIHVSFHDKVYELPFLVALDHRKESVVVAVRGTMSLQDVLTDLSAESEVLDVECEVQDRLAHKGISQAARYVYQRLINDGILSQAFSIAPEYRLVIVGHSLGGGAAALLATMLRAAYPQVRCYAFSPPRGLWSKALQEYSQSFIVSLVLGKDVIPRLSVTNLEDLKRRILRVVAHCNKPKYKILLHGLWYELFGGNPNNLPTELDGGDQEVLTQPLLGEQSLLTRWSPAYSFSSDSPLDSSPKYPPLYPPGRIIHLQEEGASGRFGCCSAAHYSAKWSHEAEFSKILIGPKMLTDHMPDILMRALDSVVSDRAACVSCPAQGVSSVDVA

IC50 [1] [nM] | Compound | IC50 [2] [nM] | IC50 [3] [nM] | IC50 [4] [nM]
30 | O=C(N1CCCCC1Cc1ccccc1)n1cc(-c2ccc(Br)cc2)nn1 (stereo not shown) [compound 31, KT116] | – | – | –
– | O=C(N1CCCCC1Cc1ccccc1)n1cc(-c2ccc(-c3ccccc3)cc2)nn1 (stereo not shown) [compound 32, KT109] | 16 | 42 | 580
